Assay results from patent US20080207694A1, “Hydroxamates as Histone Deacetylase Inhibitors and Pharmaceutical Formulations Containing Them” (priority 2005, published 2008).

How the values were obtained:
[1] = test system: histone deacetylase (HDAC), nuclear extract of Hela cells; test: Deacetylase activity on nuclear extract of HeLa cells (Fluor de Lys kit); type: biochemical, human; conditions: percent inhibition relative to control without inhibitor, compound at 0.1 μM
Protocol: (§1) The activity of the compounds as histone deacetylase (HDAC) inhibitors was measured using an in vitro acetylation assay. The compounds were then evaluated as inhibitors of proliferation of human tumor cell cultures.
Deacetylase Activity on Nuclear Extract of Hela Cells (Human Cervical Cancer Cell)
The assay (Fluor de Lys™ kit, BioMol) is divided into two steps: in the first step the substrate which comprises an acetylated lysine residue is reacted with the nuclear extract (HeLa) containing the enzymatic activity in the presence and absence of inhibitors. In the second step a fluorogenic reagent is added which highlights the deacetylated residues. A reduction in fluorescence is obtained where there has been inhibition of the deacetylase activity. The result is finally expressed as percent inhibition relative to the control without inhibitor at a concentration of 0.1 μM.

[2] = test system: Human colon carcinoma cells HCT-116; test: Cytotoxic activity on culture of human colon carcinoma cells HCT-116 (Alamar Blue); type: cell-based; conditions: HCT-116 cells, 72 hours after addition of compounds, Alamar Blue viability
Protocol: as §1
24 hours after seeding, the compounds at different concentrations are added. […] 72 hours after addition of the compounds, cell viability is measured by means of the dye Alamar Blue.

SMILES | % inhib. 0.1 μM [1] [%] | IC50 ([2]; Homo sapiens, HCT-116, 72 h) [nM] | IC50 [2] [nM]
O=C(CCCC1CCN(C(=O)NCc2ccccc2)CC1)NO [Ex 7, 4-(3-Hydroxycarbamoyl-propyl)-piperidine-1-carboxylic acid benzylamide] | 59 | 300 | –
O=C(CCCC1CCN(C(=O)Nc2ccccc2)CC1)NO [Ex 8, 4-(3-Hydroxycarbamoyl-propyl)-piperidine-1-carboxylic acid phenylamide] | 53 | 700 | –
Cc1ccc2ccccc2c1C(=O)N1CCC(CCCC(=O)NO)CC1 [Ex 15, N-Hydroxy-4-[1-(2-methyl-naphthalene-1-carbonyl)-piperidin-4-yl]-butyramide] | 43 | 840 | –
Cc1ccc(NC(=O)N2CCC(CCCC(=O)NO)CC2)cc1 [Ex 22, 4-(3-Hydroxycarbamoyl-propyl)-piperidine-1-carboxylic acid p tolylamide] | 67 | – | 940
O=C(CCCC1CCN(C(=O)NCc2ccc(Cl)cc2)CC1)NO [Ex 34, 4-(3-Hydroxycarbamoyl-propyl)-piperidine-1-carboxylic acid 4-chloro-benzylamide] | 64 | 330 | –
O=C(CCCC1CCN(C(=O)Nc2cccc3ccccc23)CC1)NO [Ex 35, 4-(3-Hydroxycarbamoyl-propyl)-piperidine-1-carboxylic acid 1-naphthylamide] | 55 | 710 | –
O=C(CCCC1CCN(C(=O)Nc2ccc3ccccc3c2)CC1)NO [Ex 36, 4-(3-Hydroxycarbamoyl-propyl)-piperidine-1-carboxylic acid 2-naphthylamide] | 73 | 830 | –
O=C(CCCC1CCN(C(=O)NCc2cccc(Cl)c2)CC1)NO [Ex 39, 4-(3-Hydroxycarbamoyl-propyl)-piperidine-1-carboxylic acid 3-chloro-benzylamide] | 60 | 810 | –
O=C(CCCC1CCN(C(=O)NCc2ccccc2F)CC1)NO [Ex 45, 4-(3-Hydroxycarbamoyl-propyl)-piperidine-1-carboxylic acid 2-fluoro-benzylamide] | 79 | 890 | –
Cc1ccc(CNC(=O)N2CCC(CCCC(=O)NO)CC2)cc1 [Ex 52, 4-(3-Hydroxycarbamoyl-propyl)-piperidine-1-carboxylic acid 4-methyl-benzylamide] | 68 | 500 | –
Nc1ccccc1NC(=O)N1CCC(CCCC(=O)NO)CC1 [Ex 73, 4-(3-Hydroxycarbamoyl-propyl)-piperidine-1-carboxylic acid (2-amino-phenyl)-amide] | 73 | 840 | –
O=C(CCCC1CCN(C(=O)CNC(=O)c2cc3ccccc3s2)CC1)NO [Ex 79, Benzo[b]thiophene-2-carboxylic acid {2-[4-(3-hydroxycarbamoyl-propyl)-piperidin-1-yl]-2-oxo-ethyl}-amide] | 70 | 770 | –
N[C@@H](CCc1ccccc1)C(=O)N1CCC(CCCC(=O)NO)CC1 [Ex 82, 4-[1-(2-(S)-Amino-4-phenyl-butyryl)-piperidin-4-yl]-N-hydroxy-butyramide] | 62 | 530 | –
O=C(CCCC1CCN(C(=O)Nc2cccc(Cl)c2F)CC1)NO [Ex 83, 4-(3-Hydroxycarbamoyl-propyl)-piperidine-1-carboxylic acid (3-chloro-2-fluoro-phenyl)-amide] | 58 | 670 | –
O=C(CCCC1CCN(C(=O)Nc2ccc(Cl)cc2F)CC1)NO [Ex 90, 4-(3-Hydroxycarbamoyl-propyl)-piperidine-1-carboxylic acid (4-chloro-2-fluoro-phenyl)-amide] | 56 | 450 | –
N[C@H](Cc1cccc2ccccc12)C(=O)N1CCC(CCCC(=O)NO)CC1 [Ex 93, 4-[1-(2-(R)-Amino-3-naphthalen-1-yl-propionyl)-piperidin-4-yl]-N-hydroxy-butyramide] | 64 | 500 | –
O=C(CCCC1CCN(C(=O)[C@H](CO)NC(=O)c2cc3ccccc3s2)CC1)NO [Ex 101, Benzo[b]thiophene-2-carboxylic acid {2-[4-(3-hydroxycarbamoyl-propyl)-piperidin-1-yl]-1-(S)-hydroxymethyl-2-oxo-ethyl}-amide] | 64 | 510 | –

SMILES | % inhib. 0.1 μM [1] [%] | IC50 ([2]; Homo sapiens, HCT-116, 72 h) [nM] | IC50 [2] [nM]
O=C(CCCC1CCN(C(=O)[C@@H](CO)NC(=O)c2cc3ccccc3s2)CC1)NO [Ex 102, Benzo[b]thiophene-2-carboxylic acid {2-[4-(3-hydroxycarbamoyl-propyl)-piperidin-1-yl]-1-(R)-hydroxymethyl-2-oxo-ethyl}-amide] | 54 | 790 | –
CN(C)[C@@H](CCc1ccccc1)C(=O)N1CCC(CCCC(=O)NO)CC1 [Ex 103, 4-[1-(2-(S)-Dimethylamino-4-phenyl-butyryl)-piperidin-4-yl]-N-hydroxy-butyramide] | 49 | 200 | –
N[C@@H](CCc1ccccc1)C(=O)N1CCC(CCCC(=O)NO)CC1 [Ex 105, 4-[1-(2-(S)-Amino-4-phenyl-butyryl)-piperidin-4-yl]-N-hydroxy-butyramide] | 59 | – | 950
O=C(CCCC1CCN(C(=O)NCc2ccco2)CC1)NO [Ex 106, 4-(3-Hydroxycarbamoyl-propyl)-piperidine-1-carboxylic acid (furan-2-ylmethyl)-amide] | 52 | 710 | –
N[C@@H](CC(=O)N1CCC(CCCC(=O)NO)CC1)c1ccc2ccccc2c1 [Ex 109, 4-[1-(3-(S)-Amino-3-naphthalen-2-yl-propionyl)-piperidin-4-yl]-N-hydroxy-butyramide] | 71 | 68 | –
O=C(CCCC1CCN(C(=O)[C@@H](CCO)NC(=O)c2cc3ccccc3s2)CC1)NO [Ex 110, Benzo[b]thiophene-2-carboxylic acid{3-hydroxy-1-(R)-[4-(3-hydroxycarbamoyl-propyl)-piperidine-1-carbonyl]-propyl}-amide] | 54 | – | 260
N[C@H](CC(=O)N1CCC(CCCC(=O)NO)CC1)c1ccc2ccccc2c1 [Ex 111, 4-[1-(3-(R)-Amino-3-naphthalen-2-yl-propionyl)-piperidin-4-yl]-N-hydroxy-butyramide] | 66 | 550 | –
N[C@@H](CC(=O)N1CCC(CCCC(=O)NO)CC1)c1ccccc1 [Ex 112, 4-[1-(3-(S)-Amino-3-phenyl-propionyl)-piperidin-4-yl]-N-hydroxy-butyramide] | 55 | 310 | –
O=C(CCCC1CCN(C(=O)[C@H](CCO)NC(=O)c2cc3ccccc3s2)CC1)NO [Ex 113, Benzo[b]thiophene-2-carboxylic acid{3-hydroxy-1-(S)-[4-(3-hydroxycarbamoyl-propyl)-piperidine-1-carbonyl]-propyl}-amide] | 61 | – | 270
O=C(CCCC1CCN(C(=O)[C@H](CO)NC(=O)c2ccc3sccc3c2)CC1)NO [Ex 114, Benzo[b]thiophene-5-carboxylic acid{2-[4-(3-hydroxycarbamoyl-propyl)-piperidin-1-yl]-1-(S)-hydroxymethyl-2-oxo-ethyl}-amide] | 61 | – | 340
NC[C@@H](NC(=O)c1cc2ccccc2s1)C(=O)N1CCC(CCCC(=O)NO)CC1 [Ex 115, 2-oxo-ethyl}-amideBenzo[b]thiophene-2-carboxylic acid{1-(R)-aminomethyl-2-[4-(3-hydroxycarbamoyl-propyl)-piperidin-1-yl]-] | 62 | – | 900
O=C(CCCC1CCN(C(=O)[C@H](CO)NC(=O)c2nccc3ccccc23)CC1)NO [Ex 122, Isoquinoline-1-carboxylic acid {2-[4-(3-hydroxycarbamoyl-propyl)-piperidin-1-yl]-1-(S)-hydroxymethyl-2-oxo-ethyl}-amide] | 42 | 420 | –
Cc1ccc(NC(=O)N2CCC(CCCC(=O)NO)CC2)c(N)c1 [Ex 126, 4-(3-Hydroxycarbamoyl-propyl)-piperidine-1-carboxylic acid (2-amino-4-methyl-phenyl)-amide] | 63 | 400 | –
CCCOc1ccc(NC(=O)N2CCC(CCCC(=O)NO)CC2)cc1 [Ex 137, 4-(3-Hydroxycarbamoyl-propyl)-piperidine-1-carboxylic acid (4-propoxy-phenyl)-amide] | 68 | 150 | –
CC(C)Oc1ccc(NC(=O)N2CCC(CCCC(=O)NO)CC2)cc1 [Ex 139, 4-(3-Hydroxycarbamoyl-propyl)-piperidine-1-carboxylic acid (4-isopropoxy-phenyl)-amide] | 56 | 400 | –
N[C@@H](CC(=O)N1CCC(CCCC(=O)NO)CC1)Cc1ccc2ccccc2c1 [Ex 144, 4-[1-(3-(R)-Amino-4-naphthalen-2-yl-butyryl)-piperidin-4-yl]-N-hydroxy-butyramide] | 69 | 240 | –
N[C@H](CC(=O)N1CCC(CCCC(=O)NO)CC1)Cc1csc2ccccc12 [Ex 146, 4-[1-(3-(S)-Amino-4-benzo[b]thiophen-3-yl-butyryl)-piperidin-4-yl]-N-hydroxy-butyramide] | 68 | 60 | –
